US20030157516A1, “G protein coupled receptor” (priority 2000, published 2003)
Where two headings read alike, the source gives them in different places.

Tests used:
wild type CHO cells = assay: [3H]adenine competition binding on wild type CHO membranes; conditions: 15 nM [3H]adenine
Method: The membranes were prepared as total particulate fractions. […] The culturing medium was removed and the cells were washed twice with ice cold phosphate buffered saline (PBS without Ca^2+ and Mg^2+), scraped from the plates in 50 mM Tris-HCl buffer, pH 7.4, and collected by centrifugation (10 minutes at 16,000 RPM at 4° C.). The cell pellet was re-suspended in hypotonic 5 mM Tris-HCl buffer, pH 7.4, and homogenized with an Ultra Turrax homogenizer (Janker Kunkel, Germany). The homogenate was centrifuged at 18,000 RPM for 20 minutes at 4° C. The final pellet was re-suspended in 50 mM Tris-HCl buffer, pH 7.4 and stored in aliquots at −70° C. A protein determination was performed using the Bradford protein assay (Biorad, Germany) using bovine serum albumin (BSA) as standard.
Membranes were thawed on ice and diluted in 50 mM HEPES buffer, pH 7.4 supplemented with 10 mM MgCl2 and 1 mM EGTA. […] Both assays were carried out in a final volume of 500 μl, using 18 μg of membrane protein for the transfected CHO cells and 30 μg of membrane protein for the wild type CHO cells for the saturation binding. For competition binding experiments, 15 and 50 μg of membrane protein was used for the transfected and wild type cells, respectively. The reaction was terminated by rapid filtration through Whatman GF/B filters using a Brandel multi-channel cell harvester (96 wells). The filters were washed three times with 3 ml ice cold 50 mM HEPES buffer, pH 7.4, transferred to liquid scintillation vials and 3 ml of scintillation fluid (Ultima Gold MV, Packard, Netherlands) was added. Samples were counted in a β-scintillation counter after at least 6 hours to permit the glass fiber filters to become uniformly translucent.

[1] = molecular target: T1, adenine binding rat receptor (Rattus norvegicus, UniProt Q7TN49); assay: cAMP measurements on CHO cells transiently transfected (forskolin stimulated); format: cell-based; conditions: inhibition of forskolin stimulated cAMP
T1 construct: expressed in transfected cells; host or cells: CHO cells, transient, lipofectamine PLUS
T1 sequence (Q7TN49 1-304): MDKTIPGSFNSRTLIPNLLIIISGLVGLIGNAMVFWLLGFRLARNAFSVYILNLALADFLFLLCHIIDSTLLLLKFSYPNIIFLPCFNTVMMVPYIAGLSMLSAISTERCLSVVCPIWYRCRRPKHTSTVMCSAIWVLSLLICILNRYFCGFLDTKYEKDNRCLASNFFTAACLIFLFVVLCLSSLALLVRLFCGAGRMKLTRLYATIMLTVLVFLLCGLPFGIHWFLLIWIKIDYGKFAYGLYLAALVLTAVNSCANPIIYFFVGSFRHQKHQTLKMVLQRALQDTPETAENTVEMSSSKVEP
Method: a) Methods—For transiently transfected CHO cells, cAMP measurements were performed using the direct RIA kit from NEN (Belgium).
The cells were collected from 50 mm petri dishes by adding 1 ml 0.04% EDTA and re-suspending them in PBS (without Ca^2+ and Mg^2+). The cells were then centrifuged for 5 minutes at 1,500 RPM, the supernatant was removed and the pellet was re-suspended in stimulation buffer (provided by the supplier, NEN). The cells were counted and 50 μl was added to each well of a 96-well flashplate at a density of 10^6 cells/well. A standard curve of cAMP was prepared in stimulation buffer, covering a range from 10 to 1,000 nM, and 50 μl was added to the flashplate.
The compounds were diluted in PBS with forskolin (at 50 μM), and 50 μl of the ligand, 2 times the final concentration, was added to the cells and incubated for 20 minutes at 37° C. After the 20 minutes incubation, 100 μl of the [^125I]cAMP tracer (2 μCi) was added to each well, resulting in a final volume of 200 μl/well. The plate was left at room temperature, until being counted in the Topcount™ microplate scintillation counter (Packard, Netherlands). The sigmoid concentration response curves (duplicate points) were analyzed using the GraphPad Prism program (GraphPad Software, Calif., USA).
a) Methods: Two days before the experiment the cells were seeded out in a 96 well plate at a density required for approximately 90% confluence at the day of the experiment. After removal of the growth medium, the cells were washed twice with a controlled salt solution (CSS) containing 25 mM Tris-HCl, pH 7.4, 120 mM NaCl, 5.4 mM KCl, 0.8 mM MgCl2, 1.8 mM CaCl2, 15 mM glucose and 15 mg/l phenol red, with an addition of a phosphodiesterase inhibitor IBMX (3-isobutyl-1-methylxanthine) in a concentration of 1 mM and […]. Basal cAMP levels were determined in CSS containing these additives and maximally stimulated cAMP levels were determined in the presence of 50 μM forskolin. For testing agonistic activity, the compounds were incubated with the cells for 20 minutes at 37° C. The reaction was stopped by addition of ice cold HClO4 (1N) and stored at −20° C. After thawing the mixtures were neutralized with an equivalent amount of phosphate buffered KOH, left at 4° C. during 30 minutes to allow the salts to precipitate and centrifuged at 2,000 RPM for 5 minutes at 4° C.
For the quantitative determination of the cAMP levels, a 96-well Flashplate radioimmunoassay kit from NEN was used, according to the protocol of the supplier. The sigmoid concentration response curves (duplicate points) were analyzed using the GraphPad Prism program.

[2] = direct assay, 0.5% hiFCS, read-out: pEC50 (converted)
[3] = direct assay, 2% hiFCS, read-out: pEC50 (converted)
[4] = indirect assay, 0.5% hiFCS, read-out: pEC50 (converted)

Work on `Nc1ncnc2c1ncn2[C@@H]1O[C@H](COP(=O)(O)O)[C@@H](O)[C@H]1O` [AMP] yielded a pIC50 (wild type CHO cells; mean of n experiments) of less than 4 and a pIC50 (wild type CHO cells; single experiments) of less than 4.

Work on `Nc1ncnc2nc[nH]c12` [Adenine, adenine] yielded a Ki (wild type CHO cells; mean of n experiments) of 85 nM, a pIC50 (wild type CHO cells; mean of n experiments) of 6.87 and an EC50 [1, 2] of 20.9 nM. For the same molecule, the EC50 [1, 3] was 7.08 nM, the EC50 [1, 4] was 3.31 nM and the EC50 ([1]; indirect assay, 2% hiFCS, read-out: pEC50 (converted)) was 110 nM. It also gave an EC50 ([1]; transiently transfected cells, read-out: EC50) of roughly 15 nM.

`Cn1cnc2ncnc-2c1N` [1-Methyladenine] showed a pIC50 (wild type CHO cells; mean of n experiments) of less than 4, a pIC50 (wild type CHO cells; single experiments) of less than 4 and an EC50 [1, 2] of 4900 nM. For the same molecule, the EC50 [1, 3] was 6310 nM, the EC50 [1, 4] was 7940 nM and the pEC50 ([1]; indirect assay, 2% hiFCS) was “no fit”.
